Test results: US10604526B2, “Chemokine receptor modulators and uses thereof” (RAPT THERAPEUTICS, INC., priority 2016, dated 2020)

Biological target: T1, hCCR4 (Homo sapiens, UniProt P51679)
T1 sequence (P51679 1-360): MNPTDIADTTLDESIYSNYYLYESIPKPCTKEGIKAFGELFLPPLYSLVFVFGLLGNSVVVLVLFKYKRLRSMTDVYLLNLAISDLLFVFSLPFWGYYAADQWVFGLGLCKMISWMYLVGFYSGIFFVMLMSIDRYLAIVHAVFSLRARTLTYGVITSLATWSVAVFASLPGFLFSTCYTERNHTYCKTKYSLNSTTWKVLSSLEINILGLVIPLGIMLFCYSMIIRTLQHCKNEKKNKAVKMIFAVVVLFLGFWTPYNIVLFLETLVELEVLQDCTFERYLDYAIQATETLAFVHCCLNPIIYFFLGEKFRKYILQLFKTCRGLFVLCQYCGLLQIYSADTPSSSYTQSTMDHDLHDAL
Test: Calcium flux assay
Assay type: cell-based
Conditions: Chem5-hCCR4 cells, CCL22 at EC80 of 1.5 nM, FLIPR Calcium 6 dye; read-out: Potency (IC50)
Procedure: Calcium Flux Assay. Compounds were evaluated in a calcium flux assay substantially performed as follows. Chem5-hCCR4 cells (EMD Millipore, Hayward, Calif.; HTS009C) were cultured under standard conditions and frozen in aliquots of 10×10^6 cells/mL. The day prior to compound testing, a vial was rapidly thawed and pipetted into 20 mL media (DMEM+10% FBS+1% Pen-Strep+1% L-glutamine). Cells were harvested by centrifugation and re-suspended in fresh culture medium. 25 μL of cell suspension was seeded into 384-well plates (Corning, Tewksbury, Mass.; CellBind with black wall/clear bottom). The plates were centrifuged at 300 g for 10 seconds and incubated overnight at 37° C. and 5% CO2. The day of compound testing, media was removed from the plates and 25 μL serum free media was added to each well. Plates were returned to the incubator for 2 h. 25 μL assay buffer (Hank's balanced salt solution+20 mM HEPES pH 7.4) containing FLIPR Calcium 6 dye (Molecular Devices, Sunnyvale, Calif.; # R8191) and probenecid (2.5 mM) was added to each well and incubated at 37° C. and 5% CO2 for 2 h. Compounds in DMSO were added to the plates using an HP D300e digital dispenser, and all wells were normalized to contain 0.25 μL (0.5%) DMSO. Plates were incubated for 1 hour at 37° C. and 5% CO2. CCL22 (Peprotech; Rockyhill, N.J.) was diluted in assay buffer containing 0.1% BSA to 7.5 nM (corresponding to 5×EC80 of 1.5 nM).
Assay plates and working solution of CCL22 were transferred to the FlexStation plate reader (Molecular Devices) at 37° C. for 5 min of equilibration. Fluorescence recordings at 485 excitation/525 emission were performed at 2.5 second intervals. At t=16 seconds, 12.5 μL of CCL22 solution was added to each well and reads continued for 30 seconds at 2.5 second intervals. The minimum fluorescence (Fmin) was calculated by averaging the reads prior to ligand addition and the change in fluorescence (ΔF) was calculated by subtracting the Fmin from the average of the reads following ligand addition. The response ΔF/Fmin was plotted as a function of the compound concentration and the IC50 values were determined by non-linear regression analysis using a 4-parameter fit in either PRISM software (GraphPad; La Jolla, Calif.) or Dotmatics Browser.

IC50 | Molecule
< 0.1 µM | 1-((R)-1-(2,4-dichlorophenyl)ethyl)-6-(3-((R)-1-((R)-4-hydroxybutan-2-yl)piperidin-3-yl)azetidin-1-yl)-1H-pyrazolo[3,4-b]pyrazine-3-carbonitrile and 1-((R)-1-(2,4-dichlorophenyl)ethyl)-6-(3-((R)-1-((S)-4-hydroxybutan-2-yl)piperidin-3-yl)azetidin-1-yl)-1H-pyrazolo[3,4-b]pyrazine-3-carbonitrile [Example 82]
0.1 to 0.5 µM | 1-((R)-1-(2,4-dichlorophenyl)ethyl)-6-(3-((S)-1-((R)-4-hydroxybutan-2-yl)piperidin-3-yl)azetidin-1-yl)-1H-pyrazolo[3,4-b]pyrazine-3-carbonitrile and 1-((R)-1-(2,4-dichlorophenyl)ethyl)-6-(3-((S)-1-((S)-4-hydroxybutan-2-yl)piperidin-3-yl)azetidin-1-yl)-1H-pyrazolo[3,4-b]pyrazine-3-carbonitrile [Example 83]
> 0.5 µM | CCOC(=O)CN1CCCC(C2CN(c3cnc4c(C)nn([C@H](C)c5ccc(Cl)cc5Cl)c4n3)C2)C1 (mixture of isomers) [Example 1, Ethyl 2-((R)-3-(1-(1-((R)-1-(2,4-dichlorophenyl)ethyl)-3-methyl-1H-pyrazolo[3,4-b]pyrazin-6-yl)azetidin-3-yl)piperidin-1-yl)acetate 2,2,2-trifluoroacetate and 2,2,2-trifluoroacetate ethyl 2-((S)-3-(1-(1-((R)-1-(2,4-dichlorophenyl)ethyl)-3-methyl-1H-pyrazolo[3,4-b]pyrazin-6-yl)azetidin-3-yl)piperidin-1-yl)acetate]
0.1 to 0.5 µM | Cc1nn([C@H](C)c2ccc(Cl)cc2Cl)c2nc(N3CC(C4CCCN(CCS(N)(=O)=O)C4)C3)cnc12 (mixture of isomers) [Example 4, 2-((R)-3-(1-(1-((R)-1-(2,4-dichlorophenyl)ethyl)-3-methyl-1H-pyrazolo[3,4-b]pyrazin-6-yl)azetidin-3-yl)piperidin-1-yl)ethane-1-sulfonamide and 2-((S)-3-(1-(1-((R)-1-(2,4-dichlorophenyl)ethyl)-3-methyl-1H-pyrazolo[3,4-b]pyrazin-6-yl)azetidin-3-yl)piperidin-1-yl)ethane-1-sulfonamide]
0.1 to 0.5 µM | Cc1nn([C@H](C)c2ccc(Cl)cc2Cl)c2nc(N3CC(C4CCCN(CCC(=O)O)C4)C3)cnc12 (mixture of isomers) [Example 7, 3-((S)-3-(1-(1-((R)-1-(2,4-Dichlorophenyl)ethyl)-3-methyl-1H-pyrazolo[3,4-b]pyrazin-6-yl)azetidin-3-yl)piperidin-1-yl)propanoic acid and 3-((R)-3-(1-(1-((R)-1-(2,4-dichlorophenyl)ethyl)-3-methyl-1H-pyrazolo[3,4-b]pyrazin-6-yl)azetidin-3-yl)piperidin-1-yl)propanoic acid]
> 0.5 µM | Cc1nn([C@H](C)c2ccc(Cl)cc2Cl)c2nc(N3CC(C4CCCN(C5CC(C(=O)O)C5)C4)C3)cnc12 (mixture of isomers) [Example 16]
< 0.1 µM | C[C@H](c1ccc(Cl)cc1Cl)n1nc(C#N)c2ncc(N3CC(C4CCCN(CCS(C)(=O)=O)C4)C3)nc21 (mixture of isomers) [Example 23, 1-((R)-1-(2,4-Dichlorophenyl)ethyl)-6-(3-((S)-1-(2-(methylsulfonyl)ethyl)piperidin-3-yl)azetidin-1-yl)-1H-pyrazolo[3,4-b]pyrazine-3-carbonitrile and 1-((R)-1-(2,4-dichlorophenyl)ethyl)-6-(3-((R)-1-(2-(methylsulfonyl)ethyl)piperidin-3-yl)azetidin-1-yl)-1H-pyrazolo[3,4-b]pyrazine-3-carbonitrile]
< 0.1 µM | C[C@H](c1ccc(Cl)cc1Cl)n1nc(C#N)c2ncc(N3CC(C4CCCN(CCC(N)=O)C4)C3)nc21 (mixture of isomers) [Example 24, 3-((S)-3-(1-(3-Cyano-1-((R)-1-(2,4-dichlorophenyl)ethyl)-1H-pyrazolo[3,4-b]pyrazin-6-yl)azetidin-3-yl)piperidin-1-yl)propanamide and 3-((R)-3-(1-(3-cyano-1-((R)-1-(2,4-dichlorophenyl)ethyl)-1H-pyrazolo[3,4-b]pyrazin-6-yl)azetidin-3-yl)piperidin-1-yl)propanamide]
< 0.1 µM | CC(O)CN1CCCC(C2CN(c3cnc4c(C#N)nn([C@H](C)c5ccc(Cl)cc5Cl)c4n3)C2)C1 (mixture of isomers) [Example 27]
< 0.1 µM | Cc1nn([C@H](C)c2ccc(Cl)cc2Cl)c2nc(N3CC(C4CCCN(CCO)C4)C3)ncc12 (mixture of isomers) [Example 37, 2-((S)-3-(1-(1-((R)-1-(2,4-Dichlorophenyl)ethyl)-3-methyl-1H-pyrazolo[3,4-d]pyrimidin-6-yl)azetidin-3-yl)piperidin-1-yl)ethan-1-ol and 2-((R)-3-(1-(1-((R)-1-(2,4-dichlorophenyl)ethyl)-3-methyl-1H-pyrazolo[3,4-d]pyrimidin-6-yl)azetidin-3-yl)piperidin-1-yl)ethan-1-ol]
< 0.1 µM | Cc1nn([C@H](C)c2ccc(Cl)cc2Cl)c2nc(N3CC(C4CCCN(CCO)C4)C3)cnc12 (mixture of isomers) [Example 40, 2-((S)-3-(1-(1-((R)-1-(2,4-Dichlorophenyl)ethyl)-3-methyl-1H-pyrazolo[3,4-b]pyrazin-6-yl)azetidin-3-yl)piperidin-1-yl)ethan-1-ol and 2-((R)-3-(1-(1-((R)-1-(2,4-dichlorophenyl)ethyl)-3-methyl-1H-pyrazolo[3,4-b]pyrazin-6-yl)azetidin-3-yl)piperidin-1-yl)ethan-1-ol]
0.1 to 0.5 µM | C[C@H](c1ccc(Cl)cc1Cl)n1nc(C(F)(F)F)c2ncc(N3CC(C4CCCN(CCO)C4)C3)nc21 (mixture of isomers) [Example 42, 2-((R)-3-(1-(1-((R)-1-(2,4-Dichlorophenyl)ethyl)-3-(trifluoromethyl)-1H-pyrazolo[3,4-b]pyrazin-6-yl)azetidin-3-yl)piperidin-1-yl)ethan-1-ol and 2-((S)-3-(1-(1-((R)-1-(2,4-dichlorophenyl)ethyl)-3-(trifluoromethyl)-1H-pyrazolo[3,4-b]pyrazin-6-yl)azetidin-3-yl)piperidin-1-yl)ethan-1-ol]

Molecule | IC50
1-((R)-1-(2,4-Dichlorophenyl)ethyl)-6-(3-((S)-1-(2-hydroxyethyl)piperidin-3-yl)azetidin-1-yl)-1H-pyrazolo[3,4-b]pyrazine-3-carbonitrile and 1-((S)-1-(2,4-dichlorophenyl)ethyl)-6-(3-((S)-1-(2-hydroxyethyl)piperidin-3-yl)azetidin-1-yl)-1H-pyrazolo[3,4-b]pyrazine-3-carbonitrile [Example 34] | < 0.1 µM
1-((R)-1-(2,4-Dichlorophenyl)ethyl)-6-(3-((S)-1-(2-hydroxyethyl)piperidin-3-yl)azetidin-1-yl)-1H-pyrazolo[3,4-b]pyrazine-3-carboxamide and 1-((S)-1-(2,4-dichlorophenyl)ethyl)-6-(3-((S)-1-(2-hydroxyethyl)piperidin-3-yl)azetidin-1-yl)-1H-pyrazolo[3,4-b]pyrazine-3-carboxamide [Example 41] | < 0.1 µM
4-((S)-3-(1-(1-((R)-1-(2,4-Dichlorophenyl)ethyl)-3-methyl-1H-pyrazolo[3,4-b]pyrazin-6-yl)azetidin-3-yl)piperidin-1-yl)butanoic acid and 4-((R)-3-(1-(1-((R)-1-(2,4-dichlorophenyl)ethyl)-3-methyl-1H-pyrazolo[3,4-b]pyrazin-6-yl)azetidin-3-yl)piperidin-1-yl)butanoic acid [Example 17] | < 0.1 µM
4-((S)-3-(1-(1-((R)-1-(2,4-Dichlorophenyl)ethyl)-3-methyl-1H-pyrazolo[3,4-d]pyrimidin-6-yl)azetidin-3-yl)piperidin-1-yl)butanoic acid and 4-((R)-3-(1-(1-((R)-1-(2,4-dichlorophenyl)ethyl)-3-methyl-1H-pyrazolo[3,4-d]pyrimidin-6-yl)azetidin-3-yl)piperidin-1-yl)butanoic acid [Example 20] | 0.1 to 0.5 µM
